Tested on: WT Mtb Erdman strain
Assay: Microplate Alamar Blue Assay (MABA), Mtb growth inhibition
Assay type: cell-based, Mycobacterium tuberculosis
Details: Mycobacterium tuberculosis, ERDMAN, 168 h, Middlebrook 7H9 media, 7 days at 37° C. in 5% CO2

| SMILES | IC50 |
| --- | --- |
| Cc1cc2c(NCCCc3cccc(F)c3)nc(C(F)(F)F)nc2s1 [Example 231, N-(3-(3-fluorophenyl)propyl)-6-methyl-2-(trifluoromethyl)thieno [2,3-d]pyrimidin-4-amine] | 1500 nM |
| Cc1cc2c(NCCCc3ccc4ccccc4c3)nc(C(F)(F)F)nc2s1 [Example 232, 6-methyl-N-(3-(naphthalen-2-yl)propyl)-2-(trifluoromethyl) thieno[2,3-d] pyrimidin-4-amine] | 1300 nM |
| Cc1cc2c(NCCCc3ccc(OC4CC4)cc3)nc(C(F)(F)F)nc2s1 [Example 233, N-(3-(4-cyclopropoxyphenyl)propyl)-6-methyl-2-(trifluoromethyl) thieno[2,3-d] pyrimidin-4-amine] | 2100 nM |
| Cc1cc2c(NCCCc3ccc(C4CCCCC4)cc3)nc(C(F)(F)F)nc2s1 [Example 234, N-(3-(4-cyclohexylphenyl)propyl)-6-methyl-2-(trifluoromethyl) thieno[2,3-d] pyrimidin-4-amine] | 1800 nM |
| Cc1cc2c(NCCCc3ccc(N)cc3)nc(C(F)(F)F)nc2s1 [Example 235, N-(3-(4-aminophenyl)propyl)-6-methyl-2-(trifluoromethyl) thieno[2,3-d]pyrimidin-4-amine] | > 9900 nM |
| CCCc1ccc(CCCNc2nc(C(F)(F)F)nc3sc(C)cc23)cc1 [Example 236, 6-methyl-N-(3-(4-propylphenyl)propyl)-2-(trifluoromethyl) thieno [2,3-d]pyrimidin-4-amine] | 1400 nM |
| Cc1cc2c(NCCCc3ccc(C4CC4)cc3)nc(C(F)(F)F)nc2s1 [Example 237, N-(3-(4-cyclopropylphenyl)propyl)-6-methyl-2-(trifluoromethyl) thieno[2,3-d] pyrimidin-4-amine] | 1800 nM |
| Cc1cc2c(NCCCc3ccc(C#N)cc3)nc(C(F)(F)F)nc2s1 [Example 238, 4-(3-((6-methyl-2-(trifluoromethyl)thieno[2,3-d]pyrimidin-4-yl)amino)propyl) benzonitrile] | > 10000 nM |
| Cc1cc2c(NCCCc3cccs3)nc(C(F)(F)F)nc2s1 [Example 239, 6-methyl-N-(3-(thiophen-2-yl)propyl)-2-(trifluoromethyl) thieno[2,3-d] pyrimidin-4-amine] | > 6800 nM |
| Cc1cc2c(NCCCc3cc(F)cc(C(F)(F)F)c3)nc(C(F)(F)F)nc2s1 [Example 240, N-(3-(3-fluoro-5-(trifluoromethyl)phenyl)propyl)-6-methyl-2-(trifluoromethyl) thieno[2,3-d] pyrimidin-4-amine] | 2900 nM |
| COc1cccc(CCCNc2nc(C(F)(F)F)nc3sc(C)cc23)c1 [Example 241, N-(3-(3-methoxyphenyl)propyl)-6-methyl-2-(trifluoromethyl) thieno[2,3-d] pyrimidin-4-amine] | 3100 nM |
| Cc1cc2c(NCCCc3ccc(S(C)(=O)=O)cc3)nc(C(F)(F)F)nc2s1 [Example 242, 6-methyl-N-(3-(4-(methylsulfonyl)phenyl)propyl)-2-(trifluoromethyl) thieno[2,3-d] pyrimidin-4-amine] | > 10000 nM |
| Cc1cc2c(NCCCc3cccc(C#N)c3)nc(C(F)(F)F)nc2s1 [Example 243, 3-(3-((6-methyl-2-(trifluoromethyl)thieno[2,3-d]pyrimidin-4-yl)amino)propyl) benzonitrile] | > 8000 nM |
| Cc1ccc(CCCNc2nc(C(F)(F)F)nc3sc(C)cc23)cc1 [Example 244, 6-methyl-N-(3-(p-tolyl)propyl)-2-(trifluoromethyl) thieno[2,3-d] pyrimidin-4-amine] | 1000 nM |
| Cc1cc2c(NCCCc3ccc(Cl)cc3)nc(C(F)(F)F)nc2s1 [Example 245, N-(3-(4-chlorophenyl)propyl)-6-methyl-2-(trifluoromethyl) thieno[2,3-d] pyrimidin-4-amine] | 1800 nM |
| COC(=O)c1ccc(CCCNc2nc(C(F)(F)F)nc3sc(C)cc23)cc1 [Example 246, methyl 4-(3-((6-methyl-2-(trifluoromethyl)thieno[2,3-d]pyrimidin-4-yl)amino)propyl) benzoate] | > 10000 nM |
| Cc1cc2c(NCCCc3ccccc3C)nc(C(F)(F)F)nc2s1 [Example 247, 6-methyl-N-(3-(o-tolyl)propyl)-2-(trifluoromethyl) thieno[2,3-d] pyrimidin-4-amine] | 1400 nM |
| Cc1cc2c(NCCCc3cccc(Cl)c3)nc(C(F)(F)F)nc2s1 [Example 248, N-(3-(3-chlorophenyl)propyl)-6-methyl-2-(trifluoromethyl) thieno[2,3-d] pyrimidin-4-amine] | 1800 nM |
| Cc1cc2c(NCCCc3ccccc3Cl)nc(C(F)(F)F)nc2s1 [Example 249, N-(3-(2-chlorophenyl)propyl)-6-methyl-2-(trifluoromethyl)thieno [2,3-d]pyrimidin-4-amine] | 4000 nM |
| CCc1nc(NCCCc2ccc(N(C)C)cc2)c2cc(C)sc2n1 [Example 250, N-(3-(4-(dimethylamino)phenyl)propyl)-2-ethyl-6-methylthieno [2,3-d]pyrimidin-4-amine] | 200 nM |

| SMILES | IC50 |
| --- | --- |
| CCc1nc(NCCCc2ccc(C)cc2)c2cc(C)sc2n1 [Example 251, 2-ethyl-6-methyl-N-(3-(p-tolyl)propyl)thieno [2,3-d]pyrimidin-4-amine] | 100 nM |
| CCc1nc(NCCCc2ccc(OC(F)(F)F)c(F)c2)c2cc(C)sc2n1 [Example 252, 2-ethyl-N-(3-(3-fluoro-4-(trifluoromethoxy)phenyl)propyl)-6-methylthieno[2,3-d]pyrimidin-4-amine] | 600 nM |
| CCc1nc(NCCCc2cccc(N(C)C)c2)c2cc(C)sc2n1 [Example 253, N-(3-(3-(dimethylamino)phenyl)propyl)-2-ethyl-6-methylthieno[2,3-d]pyrimidin-4-amine] | 1100 nM |
| CCc1nc(NCCCc2ccc3ncccc3c2)c2cc(C)sc2n1 [Example 254, 2-ethyl-6-methyl-N-(3-(quinolin-6-yl)propyl)thieno[2,3-d]pyrimidin-4-amine] | 1500 nM |
| CCc1nc(NCCCc2cccc(OC(F)(F)F)c2)c2cc(C)sc2n1 [Example 255, 2-ethyl-6-methyl-N-(3-(3-(trifluoromethoxy)phenyl)propyl)thieno [2,3-d]pyrimidin-4-amine] | 570 nM |
| CCc1nc(NCCCc2ccc3c(c2)CCO3)c2cc(C)sc2n1 [Example 256, N-(3-(2,3-dihydrobenzofuran-5-yl)propyl)-2-ethyl-6-methylthieno[2,3-d]pyrimidin-4-amine] | 290 nM |
| CCc1nc(NCCCc2ccc(Cl)cc2)c2cc(C)sc2n1 [Example 257, N-(3-(4-chlorophenyl)propyl)-2-ethyl-6-methylthieno[2,3-d]pyrimidin-4-amine] | 140 nM |
| CCc1nc(NCCCc2ccc3ccccc3c2)c2cc(C)sc2n1 [Example 258, 2-ethyl-6-methyl-N-(3-(naphthalen-2-yl)propyl)thieno[2,3-d]pyrimidin-4-amine] | 190 nM |
| CCc1nc(NCCCc2cc(F)cc(C(F)(F)F)c2)c2cc(C)sc2n1 [Example 259, 2-ethyl-N-(3-(3-fluoro-5-(trifluoromethyl)phenyl)propyl)-6-methylthieno[2,3-d]pyrimidin-4-amine] | 560 nM |
| CCc1nc(NCCCc2ccc(OC)c(F)c2)c2cc(C)sc2n1 [Example 260, 2-ethyl-N-(3-(3-fluoro-4-methoxyphenyl)propyl)-6-methylthieno[2,3-d]pyrimidin-4-amine] | 200 nM |
| CCc1nc(NCCCc2cc3ccccc3s2)c2cc(C)sc2n1 [Example 261, N-(3-(benzo[b]thiophen-2-yl)propyl)-2-ethyl-6-methylthieno[2,3-d]pyrimidin-4-amine] | 280 nM |
| Cc1cc2c(NCCCc3ccc(-c4ccc(OC(F)(F)F)cc4)nc3)nc(C(F)(F)F)nc2s1 [Example 262, 6-methyl-N-(3-(6-(4-(trifluoromethoxy)phenyl)pyridin-3-yl)propyl)-2-(trifluoromethyl) thieno[2,3-d]pyrimidin-4-amine;] | 470 nM |
| Cc1cc2c(NCCCc3ccc(-c4ccc(OC(F)(F)F)cc4)cc3)nc(-c3ccon3)nc2s1 [Example 263, 2-(isoxazol-3-yl)-6-methyl-N-(3-(4′-(trifluoromethoxy)-[1,1′-biphenyl]-4-yl)propyl)thieno [2,3-d]pyrimidin-4-amine] | 13 nM |
| Cc1cc(-c2nc(NCCCc3ccc(-c4ccc(OC(F)(F)F)cc4)cc3)c3cc(C)sc3n2)no1 [Example 264, 6-methyl-2-(5-methylisoxazol-3-yl)-N-(3-(4′-(trifluoromethoxy)-[1,1′-biphenyl]-4-yl)propyl)thieno [2,3-d]pyrimidin-4-amine] | 40 nM |
| CCc1nc(NCCCc2ccc(-c3ccccc3)cc2)c2cc(C)sc2n1 [Example 265, N-(3-([1,1′-biphenyl]-4-yl)propyl)-2-ethyl-6-methylthieno[2,3-d]pyrimidin-4-amine] | 150 nM |
| CCc1nc(NCCCc2ccc(-c3ccc(OC(F)(F)F)cc3)cc2)c2cc(C)sc2n1 [Example 266, 2-ethyl-6-methyl-N-(3-(4′-(trifluoromethoxy)-[1,1′-biphenyl]-4-yl)propyl)thieno [2,3-d]pyrimidin-4-amine] | 49 nM |
| Cc1cc2c(NCCCc3ccc(-c4ccc(OC(F)(F)F)cc4)cc3)nc(C(F)(F)F)nc2s1 [Example 267, 6-methyl-N-(3-(4′-(trifluoromethoxy)-[1,1′-biphenyl]-4-yl)propyl)-2-(trifluoromethyl)-thieno[2,3-d]pyrimidin-4-amine] | 300 nM |
| Cc1cc2c(NCCCc3ccc(-c4ccccc4)cc3)nc(C(F)(F)F)nc2s1 [Example 268, N-(3-([1,1′-biphenyl]-4-yl)propyl)-6-methyl-2-(trifluoromethyl) thieno[2,3-d]pyrimidin-4-amine] | 1200 nM |
| CCc1nc(NCCCc2cccc(-c3ccc(OC(F)(F)F)cc3)c2)c2cc(C)sc2n1 [Example 269, 2-ethyl-6-methyl-N-(3-(4′-(trifluoromethoxy)-[1,1′-biphenyl]-3-yl)propyl)thieno [2,3-d]pyrimidin-4-amine] | 1100 nM |
| CCc1nc(NCCCc2cccc(-c3ccccc3)c2)c2cc(C)sc2n1 [Example 270, N-(3-([1,1′-biphenyl]-3-yl)propyl)-2-ethyl-6-methylthieno[2,3-d]pyrimidin-4-amine] | 520 nM |
